From US6809208B2, “3-Arylbenzofuranones with electron-withdrawing substituents as stabilizers” (Ciba Specialty Chemicals Corporation, priority 2000, dated 2004)

Assay: Stabilization of polyesters (rancimate, conductivity of separation products)
Conditions: 0.20% stabilizer; 1 hour under pure oxygen at 290° C.; without stabilizer 47
Protocol: 2.5 kg of a polyester which has been dried for 12 hours at 120° C. in a vacuum drying oven (Polyclear® T86, of Hoechst) is charged with the stabilizers listed in Table 23 and is mixed for 2 hours in a Henschel mixer. This mixture is then extruded in a Schwabenthan extruder at a maximum of 275° C. The polymer string is then granulated. The granulate so obtained is dried for another 12 hours in a vacuum drying oven. In a double determination, 500 mg of the granulate is heated over 10 minutes to 290° C. and is stored for 1 hour under pure oxygen in a rancimate at 290° C. The resulting gaseous separation products are continuously led into an aqueous collecting solution and the conductivity (μS) of this solution is continuously measured. Low conductivity values signify that few separation products are formed, high conductivity values signify that very many separation products are formed. […]

Question: Which Conductivity does the source give for `CC(C)(C)c1cc2c(c(C(C)(C)C)c1)OC(=O)C2c1cccc(C#N)c1` (stereo not shown) [Compound (107)] here?
Answer: The Conductivity was 34 μS.
